Measured values published in paper PMC12395388 (Regulatory toxicology and pharmacology : RTP, 2024).
Like-named read-outs stand apart in the source and are kept apart here.

Assays:
[1] = parent drug with nitrite; ref Ozhan and Alpertunga, 2003; cited from earlier work
[2] = ref IARC (https://monographs.iarc.who.int/agents-classified-by-the-iarc/); cited from earlier work
[3] = system: Salmonella typhimurium TA1535; assay: Preincubation Ames test, strain TA1535; type: cell-based; conditions: for Effectiveness of time of preincubation for most effective S9: 30 vs 60 min; for Ames response when tested as an aqueous suspension: 60 min preincubation, TA1535; for Mutagenic response in TA1535: any activation condition and preincubation time; for Direct-acting mutagenicity in TA1535: no exogenous metabolic activation (no S9); for S9-mediated mutagenicity in TA1535: with S9 activation
[4] = system: E. coli WP2 uvrA (pKM101); assay: Preincubation Ames test, strain WP2 uvrA; type: cell-based, Escherichia coli; conditions: for Effectiveness of time of preincubation for most effective S9: strain WP2 uvrA (pKM101), 30 vs 60 min; for Mutagenic response in WP2 uvrA (pKM101): any activation condition and preincubation time
[5] = system: Salmonella typhimurium TA100; assay: Preincubation Ames test, strain TA100; type: cell-based; conditions: for Effectiveness of time of preincubation for most effective S9: strain TA100, 30 vs 60 min; for S9-mediated mutagenicity in TA100: with S9 activation
Ames tester strains = conditions: cited from earlier work; for Ames response (all S9-mediated except where noted): published/posted results, ref representative Ames references of Table 2
[6] = PC1 most potent, PC5 least potent; ref FDA, 2024a; cited from earlier work
[7] = ref Wogan et al., 1975, cited from earlier work
[8] = published by FDA as of September 4, 2024, ref FDA, 2024a; cited from earlier work
[9] = system: CHO, V79, L5178Y/Tk+/−, TK6, HepaRG cells; conditions: cited from earlier work
yeast = conditions: cited from earlier work
[10] = system: Salmonella typhimurium TA1537; assay: Preincubation Ames test, strain TA1537
[11] = ref as given in Table 2 Notes (Kerklaan et al., 1981; Zeiger et al., 1972); cited from earlier work
Drosophila = conditions: cited from earlier work; for Recombination in Drosophila: ref Vogel and Nivard, 1993
[12] = species as in value; ref as given in Table 2 Notes; cited from earlier work
[13] = Solubility in Ames test vehicles; type: physicochemical
[14] = system: Salmonella typhimurium tester strains TA98, TA100, TA1535, and TA1537, and Escherichia coli strain WP2 uvrA (pKM101); assay: Preincubation Ames test, five tester strains; type: cell-based; conditions: for Specificity for G:C or A:T target tester strains: G:C target: TA98, TA100, TA1535, TA1537, A:T target: WP2 uvrA (pKM101)
[15] = in vivo; cited from earlier work
E. coli WU3610 = conditions: ref Elespuru and Lijinsky, 1976; cited from earlier work
[16] = cell lines as named in the value, ref as given in Table 2 Notes
[17] = ref Larimer et al., 1980, Mehta and Von Borstel, 1984
[18] = listed as N-nitroso-methylphenylamine
[19] = listed as 1-Methyl-4-nitrosopiperizine
[20] = listed as 1-methyl-4-nitrosopiperizine

In the case of Fc1ccc([C@@H]2CCNC[C@H]2COc2ccc3c(c2)OCO3)cc1 [Paroxetine], the “Genotoxicity under nitrosating conditions” value [1] is given as “Paroxetine genotoxic under nitrosating conditions ([Ozhan and Alpertunga, 2003])”.

For CCCCN(CCCC)N=O [SM-9, N,N-Dibutylnitrous amide], the IARC classification [2] is given as “Group 2B”, the “Effectiveness of time of preincubation for most effective S9” value (from here on “Effectiveness of time of preincubation”) ([3]; strain TA1535) is given as 60min = 30min and the “Effectiveness of time of preincubation” value [4] is given as 60min ≥30min. The “Effectiveness of time of preincubation” value [5] was 30min ≥60min and the “Ames response (all S9-mediated except where noted)” value (Ames tester strains) was “Positive”.

For Nc1nc2ncc(CN(N=O)c3ccc(C(=O)NC(CCC(=O)O)C(=O)O)cc3)nc2c(=O)[nH]1 (centres unmarked) [NDSRI-28, 2-[[4-[(2-Amino-4-oxo-3 H-pteridin-6-yl)methyl-nitrosoamino)benzoyl]amino]pentanedioic acid], the “Ames response when tested as an aqueous suspension” value [3] is given as “d Weakly positive/equivocal when tested as an aqueous suspension: see text and Supplementary Material”, the “Ames response when tested as an aqueous suspension” value ([3]; listed as N-nitroso-folic acid) is given as “equivocal or weakly positive” and the “CPCA Potency Category (PC)” value [6] is given as “PC4”. For the same compound, the “Ames response (all S9-mediated except where noted)” value (Ames tester strains) was “Positive”, the “Lung tumors in neonatal mouse cancer bioassay” value [7] was “Weak positive for lung tumors in neonatal mouse assay ([Wogan et al., 1975])” and the “Lung tumors in neonatal mouse cancer bioassay” value ([7]; listed as N-nitroso-folic acid) was “induced lung tumors”. For the same compound, the AI limit [8] was 1500 ng/day.

In the case of CN(CCCC(=O)O)N=O [SM-7, 4-[Methyl(nitroso)amino] butanoic acid], the “CPCA Potency Category (PC)” value [6] is given as “PC4”, the “Mutagenicity/genotoxicity in mammalian cells in vitro” value (shortened to “Mutagenicity/genotoxicity … in vitro”) [9, 16] is given as “Mutagenic/genotoxic in yeast, TK6, HepaRG cells ([Mehta and Von Borstel, 1984]; [Li et al., 2022]; [Seo et al., 2023])” and the Mutagenicity/genotoxicity in yeast (yeast; [17]) is given as “Mutagenic/genotoxic in yeast, TK6, HepaRG cells ([Mehta and Von Borstel, 1984]; [Li et al., 2022]; [Seo et al., 2023])”. The AI limit [8] was 1500 ng/day.

For O=NN(c1ccccc1)c1ccccc1 [SM-11, N,N-Diphenylnitrous amide], the IARC classification [2] is given as “Group 3”.

In the case of CNCCC(Oc1ccc(C(F)(F)F)cc1)c1ccccc1 (centres unmarked) [Fluoxetine], the “Genotoxicity under nitrosating conditions” value [1] is given as “genotoxic under nitrosating conditions”.

With CN(N=O)c1ccccc1 [SM-6, N-Methyl-N-phenylnitrous amide] the “Mutagenic response in TA1535” value [3, 18] was “negative”, the “Mutagenic response in TA1535” value ([3]; listed as NMPA) was “not positive” and the “Mutagenic response in WP2 uvrA (pKM101)” value [4, 18] was “positive”. For the same compound, the “Mutagenic response in WP2 uvrA (pKM101)” value ([4]; listed as NMPA) was “mutagenic”, the “Effectiveness of time of preincubation” value [4] was 60min = 30min and the “Mutagenic response in TA1537” value ([10]; any activation condition and preincubation time, listed as N-nitroso-methylphenylamine) was “positive”. The “Effectiveness of time of preincubation” value ([10]; strain TA1537, 30 vs 60 min) was 60min = 30min, the “Effectiveness of hamster vs. rat S9s for each positive strain” value ([10]; strain TA1537, H = hamster liver S9, R = rat liver S9) was “H only” and the “Mutagenicity/genotoxicity … in vitro” value [9] was “Mutagenic/genotoxic in yeast, TK6, HepaRG cells”. The Mutagenicity/genotoxicity in yeast (yeast) was “Mutagenic/genotoxic in yeast, TK6, HepaRG cells”.

For CCN(CC)N=O [SM-2, N,N-Diethylnitrous amide], the “Mutagenicity in host-mediated assay” value [11] is given as “Mutagenic”, the “Recombination in Drosophila” value (Drosophila) is given as “recombinogen in Drosophila” and the “Mutagenicity/genotoxicity … in vitro” value [9, 16] is given as “mutagenic/genotoxic in CHO, L5178Y/Tk^+/−, V79, TK6, HepaRG cells”. For the same compound, the “Ames response (all S9-mediated except where noted)” value (Ames tester strains) was “Positive; preincubation more sensitive”, the AI limit [8] was 26.5 ng/day and the “Mutagenicity in TGR assay” value [12] was “Mutagenic in rat and mouse TGR, error-corrected sequencing”.

For O=NN1CCN(c2cc3c(cc2F)c(=O)c(C(=O)O)cn3C2CC2)CC1 [NDSRI-24, 1-Cyclopropyl-6-fluoro-7-(4-nitrosopiperazin-1-yl)-4-oxoquinoline-3-carboxylic acid], the “Solubility in test vehicles” value [13] was “poorly soluble in all vehicles”.

With CCOC(CN(CC(OCC)OCC)N=O)OCC [SM-12, N,N-Bis(2,2-diethoxyethyl)nitrous amide] the “Mutagenic response in TA1535” value [3] was “only positive strain”, the “More effective %S9 in S9 mix of more effective S9 (H or R)” value ([3]; strain TA1535, 10% vs 30% S9 in the S9 mix) was 30% only and the “Effectiveness of time of preincubation” value ([3]; strain TA1535) was 60min = 30min. For the same compound, the “Effectiveness of hamster vs. rat S9s for each positive strain” value ([3]; strain TA1535, H = hamster liver S9, R = rat liver S9) was “H only”, the “Specificity for G:C or A:T target tester strains” value [14] was “positive only in G:C detecting strains” and the Carcinogenicity in rats [15] was “noncarcinogenic in rats”.

With CN1CCN(N=O)CC1 [SM-4, 1-Methyl-4-nitrosopiperazine] the “Direct-acting mutagenicity in TA1535” value [3] was “a Equivocal direct-acting mutagen in TA1535”, the “Direct-acting mutagenicity in TA1535” value [3, 19] was “weakly positive direct-acting mutagen in two of four assays” and the “Direct-acting mutagenicity in TA1535” value [3, 20] was “classified as ‘equivocal’ as a direct-acting mutagen”. The “Effectiveness of time of preincubation” value ([3]; strain TA1535) was 60min = 30min, the “S9-mediated mutagenicity in TA1535” value [3, 19] was “strong S9-mediated mutagen” and the “S9-mediated mutagenicity in TA1535” value [3, 20] was “strongly positive”. The “CPCA Potency Category (PC)” value [6] was “PC3”, the “Specificity for G:C or A:T target tester strains” value [14] was “positive only in G:C detecting strains” and the “Mutagenicity in Drosophila” value (Drosophila; ref Nix et al., 1980) was “Mutagenic in yeast, Drosophila, V79 cells, host-mediated assay”. For the same compound, the “Recombination in Drosophila” value (Drosophila) was “recombinogen in Drosophila”, the “Mutagenicity in E. coli WU3610” value (E. coli WU3610) was “not mutagenic in E. coli WU3610” and the “Mutagenicity/genotoxicity … in vitro” value [9, 16] was “Mutagenic in yeast, Drosophila, V79 cells, host-mediated assay”. For the same compound, the “Direct-acting mutagenicity in V79 cells” value ([9]; only summary results provided, ref Kuroki et al., 1977) was “does not appear to be a direct-acting mutagen”, the “Effectiveness of time of preincubation” value [5] was 60min = 30min and the “S9-mediated mutagenicity in TA100” value [5, 19] was “strong S9-mediated mutagen”. For the same compound, the “S9-mediated mutagenicity in TA100” value [5, 20] was “strongly positive”, the “Ames response (all S9-mediated except where noted)” value (Ames tester strains) was “Positive” and the “Ames response with human liver S9” value (Ames tester strains; ref Sabadie et al., 1980) was “Ames positive with human liver S9”. The “Direct-acting mutagenicity in yeast” value (yeast; only summary results provided, ref Larimer et al., 1980) was “does not appear to be a direct-acting mutagen”, the Mutagenicity/genotoxicity in yeast (yeast; [17]) was “Mutagenic in yeast, Drosophila, V79 cells, host-mediated assay” and the AI limit [8] was 400 ng/day.

For CN(C)N=O [SM-1, N,N-Dimethylnitrous amide], the IARC classification [2] is listed as “Group 2A”, the “Effectiveness of time of preincubation” value ([3]; strain TA1535) is listed as 60min >30min and the “Mutagenicity in host-mediated assay” value [11] is listed as “Mutagenic”. For the same compound, the “Effect of length of preincubation on positive responses” value ([14]; 30 min vs 60 min, over all strains, listed as NDMA) was “benefited from a preincubation of 60 min compared with 30 min”, the “Recombination in Drosophila” value (Drosophila) was “recombinogen in Drosophila” and the “Effectiveness of time of preincubation” value [4] was 60min = 30min. For the same compound, the “Mutagenicity/genotoxicity … in vitro” value [9, 16] was “mutagenic/genotoxic in CHO, V79, L5178Y/Tk^+/−, HepaRG cells”, the “Effectiveness of time of preincubation” value [5] was 60min >30min and the “Ames response (all S9-mediated except where noted)” value (Ames tester strains) was “Positive; preincubation more sensitive”. The AI limit [8] was 96 ng/day and the “Mutagenicity in TGR assay” value [12] was “Mutagenic in mouse and rat TGR”.
